Source: ChEMBL document CHEMBL5532634, “Oxazolidinone: A promising scaffold for the development of antibacterial drugs” (Eur J Med Chem, 2023)
Converted amounts (≈) assume the structure as drawn.

Tested on: Mycobacterium tuberculosis
Experiment: Antimycobacterial activity against multi-drug resistant Mycobacterium tuberculosis assessed as reduction in bacterial growth
Assay type: functional

SMILES: CC(=O)NC[C@H]1CN(c2ccc(N3CCSCC3)c(F)c2)C(=O)O1 [SUTEZOLID]
- MIC: 0.2 µg/mL (≈ 0.566 µM)
